Source: US11639506B2, “Recombinant yeast having increased tolerance to ionic liquids and methods of use” (Wisconsin Alumni Research Foundation, priority 2015, dated 2023)
Values joined by “and” are separate entries in the source; they are usually repeats but may differ in a detail not shown here. Equal values may be shown once.

How the values were obtained:
[1] = system: xylose fermenting yeast GLBRCY133; assay: Growth inhibition IC50, xylose fermenting yeast Y133; assay type: cell-based, S. cerevisiae; details: Y133 and Y133 ptk2Δ
yeast mitochondria = assay: SYTO 16 staining of active mitochondria (microscopy); assay type: cell-based; details: SYTO 16 stain
Source text: We determined that ionic liquids were more toxic to cells grown on glycerol compared to glucose (FIG. 3A). Using microscopy, we explored the effect of ionic liquids on mitochondria. […] Untreated cells had normal mitochondrial morphology, and at higher doses, mitochondria structures in cells disappeared indicating a loss of functional mitochondria. Finally, we used FACS analysis with the stain 3,3-Dioctadecyloxacarbocyanine perchlorate (“DiO”), which has differential fluorescence depending on mitochondrial membrane potential. In the presence of ionic liquids, we observed a fluorescence shift of DiO, indicating reduced mitochondrial membrane potential (FIGS. 3C-D). Valinomycin was used as a positive control. Hydroxyurea and benomyl were included as negative control agents that causes cell death through a mechanism unrelated to the mitochondria.

[2] = system: S. cerevisiae deletion mutants; assay: Chemical genomic profiling of pooled deletion mutants; assay type: cell-based
Protocol: FIGS. 1A-B depict chemical genomic profiling of ionic liquids. A genome-wide set of deletion mutants were challenged with a specific compound and grown as a pool for several generations.
Chemical genomic analysis: Chemical genomic analysis of poacic acid was performed as described as described previously (Fung et al., 2013; Parsons et al., 2006). The tested yeast deletion collection had 4000 strains using the genetic background described in Andrusiak (2012). The optimal inhibitory concentration of poacic acid for chemical genomic profiling (70-80% growth versus solvent control in YP-galactose media after 24 hours of growth) was determined using an 8 point dose curve. A concentration of 88 μg/ml inhibited growth within this range. 200 μl cultures of the pooled, deletion collection of S. cerevisiae deletion mutants were grown with 88 μg/ml poacic acid or a DMSO control in triplicate for 48 hours at 30° C. Genomic DNA was extracted using the Epicentre MasterPure™ Yeast DNA purification kit. Mutant-specific molecular barcodes were amplified with specially designed multiplex primers (Smith et al., 2009). The barcodes were sequenced using an Illumina MiSeq. Three replicates of each condition (poacic acid vs. DMSO) were sequenced. One DMSO control was lost due to poor sequencing reads. The barcode counts for each yeast deletion mutant in the presence of poacic acid were normalized against the DMSO control conditions to define sensitivity or resistance of individual strains. To determine a p-value for each top sensitive and resistant mutant, we used the EdgeR package (Robinson et al., 2014, 2010). A Bonferroni-corrected hypergeometric distribution test was used to search for significant enrichment of GO terms among the top 10 sensitive and resistant deletion mutants (Boyle et al., 2004). To understand the pathways that were most affected by poacic acid we developed a protein complex/pathway score based on the summation of the z-scores for each complex/pathway (Pathway z-score). Correlation of the chemical genomic profile of poacic acid with the yeast genetic interaction network to was done as described in Costanzo et al. (2010).

Y133 ptk2Δ = assay type: cell-based, S. cerevisiae; details: relative to Y133, p<0.01
Protocol: Compounds, initial screening, and IC50 determination: Compounds tested were purchased from Sigma-Aldrich. […] Plates were read on a TECAN M1000 over a 48 hour growth period. […] When presented, IC50 values for growth inhibition were calculated from triplicate 8 point dose curves and SigmaPlot 12.0. When presented, error bars are mean±standard error (S.E.) of at least 3 replicates.

## CCn1cc[n+](C)c1.[Cl-] [EMIM-Cl, 1-ethyl-3-methylimidazolium chloride]
[1]
  effects on growth at pH 6.5 versus pH 5.0: much greater
Yeast mitochondria
  effect on staining of active mitochondria: dose-dependent effect
[2]; APM3 deletion mutant
  Fold Change: 0.5222
[2]; ARG2 deletion mutant, listed as EMIM-CI
  Fold Change: 0.1706
[2]; ARX1 deletion mutant
  Fold Change: 1.688
[2]; AVT3 deletion mutant
  Fold Change: 1.575
[2]; AVT5 deletion mutant
  Fold Change: 1.933
[2]; BAP2 deletion mutant
  Fold Change: 1.689
[2]; BNI4 deletion mutant
  Fold Change: 1.665
[2]; BUD8 deletion mutant
  Fold Change: 0.6034
[2]; CAT5 deletion mutant
  Fold Change: 0.4405
[2]; CTF4 deletion mutant
  Fold Change: 2.67
[2]; DAN1 deletion mutant
  Fold Change: 0.5786
[2]; DBF2 deletion mutant
  Fold Change: 1.927
[2]; DBP3 deletion mutant
  Fold Change: 1.709
[2]; DEP1 deletion mutant
  Fold Change: 2.106
[2]; DIA2 deletion mutant
  Fold Change: 2.886
[2]; DOA1 deletion mutant
  Fold Change: 1.661
[2]; DPB3 deletion mutant
  Fold Change: 1.946
[2]; ERF2 deletion mutant
  Fold Change: 1.477
[2]; GAL1 deletion mutant
  Fold Change: 0.1962
[2]; GAL1 deletion mutant, listed as EMIM-CI
  Fold Change: 0.1962
[2]; GRX2 deletion mutant
  Fold Change: 0.3394
[2]; HIR2 deletion mutant
  Fold Change: 0.4587
[2]; HMI1 deletion mutant
  Fold Change: 0.1939
[2]; IRA2 deletion mutant
  Fold Change: 0.4076
[2]; IST3 deletion mutant
  Fold Change: 1.899
[2]; LIA1 deletion mutant
  Fold Change: 1.621
[2]; LYS2 deletion mutant
  Fold Change: 0.4622
[2]; LYS5 deletion mutant
  Fold Change: 0.1821
[2]; LYS14 deletion mutant
  Fold Change: 0.3984
[2]; MCT1 deletion mutant
  Fold Change: 0.1576
[2]; MEI4 deletion mutant
  Fold Change: 1.592
[2]; MF(ALPHA)2 deletion mutant
  Fold Change: 0.6154
[2]; NMD2 deletion mutant
  Fold Change: 1.614
[2]; OLA1 deletion mutant
  Fold Change: 1.645
[2]; PEX32 deletion mutant
  Fold Change: 2.103
[2]; PMT1 deletion mutant
  Fold Change: 1.712
[2]; PPM1 deletion mutant
  Fold Change: 0.3444
[2]; PTK2 deletion mutant
  Fold Change: 12
[2]; PUF4 deletion mutant
  Fold Change: 0.1863
[2]; PUF4 deletion mutant, listed as EMIM-CI
  Fold Change: 0.1863
[2]; PUF6 deletion mutant
  Fold Change: 1.748
[2]; QCR2 deletion mutant, listed as EMIM-CI
  Fold Change: 0.195
[2]; RCR1 deletion mutant
  Fold Change: 0.4508
[2]; REI1 deletion mutant
  Fold Change: 2.168
[2]; RHO2 deletion mutant
  Fold Change: 1.785
[2]; RIM1 deletion mutant, listed as EMIM-CI
  Fold Change: 0.1974
[2]; RNP1 deletion mutant
  Fold Change: 1.495
[2]; ROM2 deletion mutant
  Fold Change: 2.198
[2]; RPL11B deletion mutant
  Fold Change: 1.725
[2]; RPL19A deletion mutant
  Fold Change: 1.875
[2]; RPL19B deletion mutant
  Fold Change: 1.56
[2]; RPL24B deletion mutant
  Fold Change: 2.086
[2]; RPS10A deletion mutant
  Fold Change: 2.351
[2]; RPS18B deletion mutant
  Fold Change: 1.743
[2]; RPS28B deletion mutant
  Fold Change: 2.088
[2]; RRI1 deletion mutant
  Fold Change: 0.6151
[2]; SAP155 deletion mutant
  Fold Change: 1.704
[2]; SAP185 deletion mutant
  Fold Change: 0.649
[2]; SAY1 deletion mutant
  Fold Change: 1.592
[2]; SHE9 deletion mutant
  Fold Change: 0.2014
[2]; SIN3 deletion mutant
  Fold Change: 2.02
[2]; SKY1 deletion mutant
  Fold Change: 4.5 and 4.547
[2]; SPS4 deletion mutant
  Fold Change: 0.5658
[2]; SSK2 deletion mutant
  Fold Change: 1.579
[2]; SUR4 deletion mutant
  Fold Change: 2.535
[2]; SVL3 deletion mutant
  Fold Change: 0.3847
[2]; SWI6 deletion mutant
  Fold Change: 1.902
[2]; TOP1 deletion mutant
  Fold Change: 1.759
[2]; TRP2 deletion mutant
  Fold Change: 1.685
[2]; TSR2 deletion mutant
  Fold Change: 1.94
[2]; TYE7 deletion mutant
  Fold Change: 0.4859
[2]; UBC4 deletion mutant
  Fold Change: 1.541
[2]; UBP14 deletion mutant
  Fold Change: 1.534
[2]; UPF3 deletion mutant
  Fold Change: 1.61
[2]; VPS38 deletion mutant
  Fold Change: 1.666
[2]; YBR090C deletion mutant
  Fold Change: 0.5882
[2]; YDL118W deletion mutant
  Fold Change: 1.522
[2]; YDL172C deletion mutant
  Fold Change: 1.636
[2]; YGR237C deletion mutant
  Fold Change: 0.5496
[2]; YHB1 deletion mutant
  Fold Change: 0.5611
[2]; YIH1 deletion mutant
  Fold Change: 1.762
[2]; YIL141W deletion mutant
  Fold Change: 1.524
[2]; YIR044C deletion mutant
  Fold Change: 0.5723
[2]; YLR194C deletion mutant
  Fold Change: 0.5909
[2]; YLR279W deletion mutant
  Fold Change: 0.5779
[2]; YLR434C deletion mutant
  Fold Change: 1.5
[2]; YMR193C-A deletion mutant
  Fold Change: 1.867
[2]; YOL162W deletion mutant
  Fold Change: 0.5537
[2]; YPL205C deletion mutant
  Fold Change: 1.523
[2]; YPR130C deletion mutant
  Fold Change: 0.5263
[2]; YPS7 deletion mutant
  Fold Change: 1.508
[2]; YPT7 deletion mutant
  Fold Change: 0.1584
[2]; YPT7 deletion mutant, listed as EMIM-CI
  Fold Change: 0.1584
[2]; YSP2 deletion mutant
  Fold Change: 1.618
[2]; ZDS1 deletion mutant
  Fold Change: 0.6026
Y133 ptk2Δ
  tolerance conferred by deletion of PTK2 in Y133: significantly greater tolerance
